The nature of the assay: EBV protein-peptide binding inhibitors, dose response, biochemical, fluorescence polarization (AID 1419). The note with it: cell-free protein-peptide binding, 2 h; for fold change: measured here: P channel fold over control, at 54 µM.

SMILES strings stand for the structures. Calls of active or inactive are those of the source. No rule for the calls is given here. Some results are limits rather than exact numbers.

For `Cc1ccccc1C(=O)Nc1ccc2c(C#N)c3nc4ccccc4nc3n2c1`, the IC50 was 13.7 µM and the fold change was found to be 0.993.
The corresponding values for `O=c1oc2c3c4c(cc2c(C(F)(F)F)c1CCN1CCOCC1)CCCN4CCC3` are < 0.42 µM and 35.9.
The like results for `Oc1ccccc1C=NC1=NN(c2cccc(C(F)(F)F)c2)CC1` were, in that order, 3.11 µM and 19.9.
In the case of `COc1ccc(-n2c(C)cc(/C=C3/SC(=S)N(C)C3=O)c2C)cc1`, the IC50 is 23.5 µM and the fold change turned out to be 7.53.
In the case of `CC1=CC(=C(C#N)c2nc3ccccc3s2)C=C(C)N1c1ccc(F)cc1`, the IC50 was 7.09 µM and the fold change came to 38.9.
As for `c1ccc(-c2cn3nc(-c4ccccc4)c(-c4ccccc4)nc3n2)cc1`, the IC50 was 0.78 µM and the fold change was determined as 21.2.
Take `Cc1nn(-c2ccccc2)c2c1C(c1ccc(O)c(O)c1)N1C(=N2)C(Nc2ccccc2)=Nc2ccccc21` (centres undefined): the IC50 was 6.05 µM and the fold change turned out to be 3.94.
The like results for `Cc1c(C#N)c2ncnc(-c3ccccc3)c2n1-c1ccccc1` were, in that order, > 54 µM (inactive) and 1.02.
The like results for `O=C(O)COc1ccc(-c2nccc(-c3cccs3)n2)cc1` were, in that order, > 54 µM (inactive) and 1.03.
The corresponding values for `Cn1cc(/C=C2\SC(=O)NC2=S)c2ccccc21` are > 54 µM (inactive) and 2.12.
On to `COc1ccc(NC(=O)NC(=O)c2cc(OCC(F)(F)F)ccc2OCC(F)(F)F)cc1`, for which the IC50 was > 54 µM (inactive) and the fold change was determined as 0.943.
For `CCN(CC)c1ccc(C=C2C(=O)OC(c3ccccc3)OC2=O)cc1` (centres undefined), the concentration for half-maximal inhibition (IC50) is 14.6 µM and the fold change worked out at 10.8.
As to `CN(C)c1ccc(Nc2c3c4c(cccc4n(C)c2=O)C(=O)c2ccccc2-3)cc1`, the IC50 was > 54 µM (inactive) and the fold change stood at 1.1.
Consider `O=C(O)c1ccc2c3c(ncnc13)-c1ccccc1C2=O`, for which the IC50 is > 54 µM (inactive) and the fold change came out at 1.83.
Turning to `CC1C2C(C)N(C)C(=O)N(C)C2N(C)C(=O)N1C` (centres undefined), the IC50 is 8.68 µM and the fold change stood at 8.94.
In the case of `O=C1c2cccc3c(O)ccc(c23)C(=O)N1Cc1ccccc1`, the IC50 was < 0.42 µM and the fold change is 138.
Take `CCCCN1C(=O)/C(=C/C=C2\N(C)c3ccccc3C2(C)C)SC1=S`: the 50% inhibitory concentration (IC50) was 2.01 µM and the fold change was 18.6.
Turning to `NC(=O)c1c(NC(=O)Cn2nc(C(=O)O)c3ccccc3c2=O)sc2c1CCCC2`, the IC50 is > 54 µM (inactive) and the fold change was 1.01.
The like results for `COc1cccc(C2C3CN(C)CC=C3C(C#N)=C(N)C2(C#N)C#N)c1OC` (centres undefined) were, in that order, 0.83 µM and 9.89.
As to `Fc1ccc(C2=CC(c3ccc(Br)o3)n3ncnc3N2)cc1` (centres undefined), the IC50 is 2.62 µM and the fold change came to 3.2.
Regarding `O=C(NNC1=Nc2cccc3cccc1c23)c1ccc(Br)cc1`, the IC50 was > 54 µM (inactive) and the fold change was 3.27.
Consider `O=C(CSc1ccccn1)Nc1ccc2c(c1)C(=O)c1ccccc1C2=O`, for which the IC50 is 19.4 µM and the fold change is 0.783.
For the compound `O=C1c2cccc3cc([N+](=O)[O-])cc(c23)C(=O)N1/N=C/c1ccc(O)cc1O`, the IC50 was 10 µM and the fold change stood at 0.933.
The corresponding values for `O=C(COC(=O)c1c2c(nc3ccccc13)/C(=C/c1ccco1)CC2)NC1CCCC1` are > 54 µM (inactive) and 2.02.
The corresponding values for `CCCCCCOC(=O)C(C#N)c1nc2ccccc2nc1N1CCOCC1` (centres undefined) are 14.6 µM and 8.17.
As to `CC(C)Nc1nc(Cl)nc(N(C#N)CN2C(=O)c3ccccc3S2(=O)=O)n1`, the IC50 is > 54 µM (inactive) and the fold change was found to be 0.923.
The like results for `NC(=O)c1ccc(N=Nc2c(O)c3ccccc3[nH]c2=O)cc1` were, in that order, 13.3 µM and 2.71.
The like results for `COCCN=c1scc(-c2ccco2)n1/N=C/c1ccc(O)c(O)c1O` were, in that order, 12 µM and 1.04.
The corresponding values for `COC(=O)c1cc(NC(=O)c2cccc(Cl)c2)c(=O)oc1/C=C/Nc1cc(C)cc(C)c1` are 4.37 µM and 22.8.
In the case of `O=C(c1nc2n(n1)C(c1ccc(Cl)cc1)C=C(c1ccccc1)N2)N1CCOCC1` (centres undefined), the IC50 is 2.27 µM and the fold change worked out at 5.19.
The corresponding values for `Oc1ccc2ccccc2c1N=Nc1ccc(F)cc1` are > 54 µM (inactive) and 1.24.
Regarding `CN(C)CCCN1C(=O)c2cccc3c([N+](=O)[O-])ccc(c23)C1=O`, the IC50 was 18 µM and the fold change turned out to be 2.14.
In the case of `O=c1[nH]c2cc3c(cc2cc1CN(Cc1nnnn1CC1CCCO1)C1CCCCC1)OCO3` (centres undefined), the IC50 is 51.6 µM (inactive) and the fold change came out at 1.73.
Turning to `CSC1=NSC2=NC(=O)/C(=C\c3coc4ccccc4c3=O)C(=N)N12`, the IC50 was 2.74 µM and the fold change was determined as 82.6.
The like results for `Cc1ccccc1NC(=O)CSc1ccsc1[N+](=O)[O-]` were, in that order, 15.2 µM and 1.04.
`c1ccc(-c2cn3nc4c(nc3n2)CCCC4)cc1`: the IC50 is 4.56 µM and the fold change came to 2.57.
For `N#CC1=C(N)C(C#N)(C#N)C(c2cccnc2)C2CCCC=C12` (centres undefined), the IC50 was 4.81 µM and the fold change was 2.44.
Regarding `Cn1c(O)c(C=Nc2ccc(N3CCOCC3)cc2)c(=O)n(C)c1=S`, the half-inhibitory concentration (IC50) is 18.9 µM and the fold change came out at 6.36.
On to `O=C(Nc1cccc(Cl)c1)c1cc(N=Nc2ccc([N+](=O)[O-])cc2Cl)ccc1O`, for which the concentration for half-maximal inhibition (IC50) is 17.7 µM and the fold change amounted to 0.99.
Consider `CCCSCCCNC(=O)CC1Oc2ccccc2NC1=O` (centres undefined), for which the IC50 is > 54 µM (inactive) and the fold change turned out to be 1.09.
With `Cn1c(=O)c(NC2CCCCC2)c2c3c(cccc31)C(=O)c1ccccc1-2`, the IC50 was 0.88 µM and the fold change was determined as 34.7.
The like results for `COC(=O)c1cc2c(-c3ccccc3)c(C)c3ccccn3c-2c1C(=O)OC` were, in that order, 9.93 µM and 1.47.
Turning to `CCNc1cccc2c1C(=O)N(C)C2=O`, the IC50 was 0.96 µM and the fold change stood at 24.2.
Regarding `O=C(NC1CC1)c1cc(-c2ccco2)nc2ccccc12`, the half-maximal inhibitory concentration (IC50) was 3.96 µM and the fold change is 1.06.
For `Cc1ccc([N+](=O)[O-])cc1-c1ccc(/C=C(\C#N)c2[nH]nc(N)c2C#N)o1`, the IC50 was > 54 µM (inactive) and the fold change was determined as 0.727.
The corresponding values for `O=C(N/N=C/c1cc(Cl)cc(Cl)c1O)c1ccncc1` are 1.81 µM and 5.72.
As to `Nc1ccc(O)c2c1C(=O)c1ccccc1C2=O`, the concentration for half-maximal inhibition (IC50) is 3.1 µM and the fold change was 2.55.
For `COC(=O)c1ccc(C)c(NC(=O)CCSc2ccc(Cl)cc2)c1`, the IC50 was > 54 µM (inactive) and the fold change is 1.15.
The like results for `C=CCn1c(C)cc(C(=O)COC(=O)COc2ccccc2C#N)c1C` were, in that order, > 54 µM (inactive) and 1.04.
The corresponding values for `CCn1c(CSc2nccn2C)nc2cc(C(=O)O)ccc21` are 13 µM and 2.34.
Consider `O=C1Nc2cc(Cl)cnc2N2CCCC12` (centres undefined), for which the IC50 was > 54 µM (inactive) and the fold change amounted to 1.68.
The like results for `COc1nc(NCCC2=CCCCC2)nc(OC)n1` were, in that order, > 54 µM (inactive) and 1.
Regarding `Cc1nn(-c2ccccc2)c2c1C(c1ccccc1)C(C#N)=C(N)O2` (centres undefined), the IC50 is > 54 µM (inactive) and the fold change turned out to be 1.01.
Consider `CC(=O)OCCCNc1cc(Sc2nc3ccccc3s2)c2nonc2c1[N+](=O)[O-]`, for which the IC50 is 9.79 µM and the fold change came out at 4.44.
For `COC(=O)c1cc(C(=O)c2ccc(Cl)cc2)n2c(=O)/c(=C\N(C)C)sc12`, the IC50 was 51.9 µM (inactive) and the fold change turned out to be 1.56.
The like results for `CCOC(=O)c1cc2n(c1/N=C/N(C)C)-c1ccccc1C2=O` were, in that order, < 0.42 µM and 42.3.
The like results for `Cc1ccc(C(=O)Nn2c(O)c(C=C3N=c4ccccc4=N3)sc2=S)cc1` were, in that order, > 54 µM (inactive) and 1.04.
The like results for `Cc1ccc(N2C(=O)[C@@H]3[C@H](C2=O)C2c4ccccc4C=CN2[C@@H]3C(=O)c2ccco2)cc1` (some centres undefined) were, in that order, 5.71 µM and 2.76.
As for `C=CCOc1cccc(C2C(C(=O)c3ccc(C)o3)=C(O)C(=O)N2c2nccs2)c1` (centres undefined), the concentration for half-maximal inhibition (IC50) is < 0.42 µM and the fold change is 4.84.
The like results for `CCSc1nc2sc3c(c2c(=O)[nH]1)CCCC3` were, in that order, > 54 µM (inactive) and 1.05.
The like results for `COc1ccc(N=C2S/C(=C\c3ccc(OCC(=O)O)cc3)C(=O)N2CCc2c[nH]c3ccccc23)cc1` were, in that order, 1.88 µM and 1.05.
The like results for `CCCc1cc(=O)n(-c2nc3ccccc3s2)[nH]1` were, in that order, > 54 µM (inactive) and 0.94.
`CC(=O)Nc1ccc(Nc2c3c4c(cccc4n(C)c2=O)C(=O)c2ccccc2-3)cc1`: the IC50 is < 0.42 µM and the fold change came to 9.61.
The corresponding values for `Cc1cc(/C=C2\C(=O)NC(=O)N(c3cccc(Br)c3)C2=O)c(C)n1C` are 7.34 µM and 9.43.
On to `COc1ccc(C2C=C(c3ccc(Cl)cc3)Nc3nc(NC(C)=O)nn32)cc1` (centres undefined), for which the half-inhibitory concentration (IC50) is 5.59 µM and the fold change worked out at 3.32.
The corresponding values for `Cc1ccc(C2=N/C(=C\c3c(C)nn(-c4ccccc4)c3N3CCCC3)C(=O)O2)cc1` are 5.71 µM and 6.13.
The like results for `Cn1c(=O)c(NCCc2ccccc2)c2c3c(cccc31)C(=O)c1ccccc1-2` were, in that order, < 0.42 µM and 226.

For orientation: IC50 means the point on the concentration scale where inhibition reaches its midpoint.

Values taken from PubChem BioAssay AID1419 (Emory University Molecular Libraries Screening Center, 2008).
